From patent publication US20050004126A1 (priority 2001, published 2005)

Biological target: MMP-13CD (catalytic domain of collagenase 3) (Homo sapiens, UniProt P45452)
Experiment: Thiopeptolide hydrolysis assay, MMP-13;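 note: inhibition of enzymatic thiopeptolide substrate cleavage (100 µM) in pH 6.0 MES buffer with CaCl2 and DTNB, comparing hydrolysis with versus without inhibitor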

SMILES	IC50 (MMP13 IC50 μM, Table IVb)	IC50 (MMP 13 IC50 μM, Table III)
COc1ccc(CNC(=O)c2ccc3c(c2)c(=O)n(CCn2cccc2)c(=O)n3C)cc1	1.45 µM	–
COc1ccc(CNC(=O)c2ccc3c(c2)c(=O)n(Cc2ccc(-c4ccccc4-c4nnn[nH]4)cc2)c(=O)n3C)cc1	0.025 µM	–
Cn1c(=O)n(CC=Cc2ccncc2)c(=O)c2cc(C(=O)NCc3ccncc3)ccc21	0.24 µM	–
Cn1c(=O)n(Cc2ccncc2)c(=O)c2cc(C(=O)NCc3ccc(O)cc3)ccc21	0.051 µM	–
CC(c1cccc2ccccc12)n1c(=O)c2cc(C(=O)NCc3ccc4c(c3)OCO4)ccc2n(C)c1=O (centres unmarked)	9.4 µM	–
COc1ccc(CNC(=O)c2ccc3c(c2)c(=O)n(CC=C(C)C)c(=O)n3C)cc1	0.2 µM	–
Cn1c(=O)c2cc(C(=O)NCc3ccc4c(c3)OCO4)cnc2n(C)c1=O	3.85 µM	–
Cn1c(=O)c2cc(C(=O)NCc3ccc4c(c3)OCO4)ncc2n(C)c1=O	0.18 µM	–
COc1ccc(CNC(=O)c2ccc3c(c2)c(=O)n(Cc2ccc(C(=O)OCCN(C)C)c(OC)c2)c(=O)n3C)cc1	0.5 µM	–
Cn1c(=O)n(Cc2ccccc2)c(=O)c2cc(C(=O)NCc3ccc(C#N)cc3)ccc21	0.34 µM	–
Cn1c(=O)n(Cc2ccccc2)c(=O)c2cc(C(=O)NCCCSc3ccncc3)ccc21	0.026 µM	–
Cn1c(=O)n(Cc2ccccc2)c(=O)c2cc(C(=O)OC/C=C/c3ccncc3)ccc21	0.385 µM	–
Cn1c(=O)n(Cc2ccccc2)c(=O)c2cc(C(=O)OC/C=C/c3cccnc3)ccc21	0.34 µM	–
Cn1c(=O)n(Cc2ccccc2)c(=O)c2cc(C(=O)CSc3ccncc3)ccc21	3.4 µM	–
COc1ccc(CNC(=O)c2ccc3c(c2)c(=O)n(CCS(=O)(=O)c2ccccc2)c(=O)n3C)cc1	0.84 µM	–
COc1ccc(CNC(=O)c2ccc3c(c2)c(=O)n(Cc2ccc(-c4ccccc4C#N)cc2)c(=O)n3C)cc1	0.025 µM	–
Cn1c(=O)n(Cc2cccc(F)c2)c(=O)c2cc(C(=O)NCc3ccncc3)ccc21	0.017 µM	–
CCOc1ccccc1COC(=O)c1cc2c(=O)n(Cc3ccc(C(=O)O)cc3)c(=O)n(C)c2s1	–	8 µM
Cn1c(=O)n(Cc2ccc(C#N)cc2)c(=O)c2cc(C(=O)NCc3ccncc3)ccc21	0.053 µM	–
COc1ccc(CNC(=O)c2ccc3[nH]c(=O)n(Cc4ccc(N(C)C)cc4)c(=O)c3c2)cc1	0.075 µM	–
Cn1c(=O)n(Cc2ccc(O)cc2)c(=O)c2cc(C(=O)NCc3ccncc3)ccc21	0.057 µM	–
COC(=O)CCCCn1c(=O)c2cc(C(=O)OCc3ccccc3)sc2n(C)c1=O	–	0.15 µM
CCn1c(=O)n(Cc2ccc(C(=O)O)cc2)c(=O)c2cc(C(=O)NCc3ccc(OC)cc3)ccc21	0.003 µM	–
Cn1c(=O)n(Cc2ccc(C(=O)O)cc2)c(=O)c2cc(C(=O)NCc3ccncc3)ccc21	0.0057 µM	–
CSc1ccc(CNC(=O)c2ccc3c(c2)c(=O)n(Cc2ccc(C(=O)O)cc2)c(=O)n3C)cc1	0.0029 µM	–

SMILES	IC50 (MMP13 IC50 μM, Table IVb)	IC50 (MMP 13 IC50 μM, Table III)
COc1cccc(CNC(=O)c2cc3c(=O)n(Cc4ccc(C(=O)O)cc4)c(=O)n(C)c3cn2)c1	0.0011 µM	–
Cn1c(=O)n(Cc2ccc(C(=O)O)cc2)c(=O)c2cc(C(=O)NCc3ccc(F)cc3)ccc21	0.0018 µM	–
Cn1c(=O)n(Cc2ccc(C(=O)O)cc2)c(=O)c2cc(C(=O)NCc3ccc4c(c3)OCO4)ccc21	0.0009 µM	–
Cn1c(=O)n(Cc2ccc(C(=O)O)cc2)c(=O)c2cc(C(=O)NCc3ccc4nonc4c3)ccc21	0.003 µM	–
COc1ccc(CNC(=O)c2ccc3c(c2)c(=O)n(Cc2ccc(-c4ccccc4C(=O)O)cc2)c(=O)n3C)cc1	0.013 µM	–
COc1ccc(CNC(=O)c2cc3c(=O)n(Cc4ccc5nocc5c4)c(=O)n(C)c3s2)cc1	–	0.018 µM
COc1cccc(CNC(=O)c2cc3c(=O)n(CS(=O)(=O)Cc4ccccc4)c(=O)n(C)c3s2)c1	–	1.7 µM
COc1cccc(CNC(=O)c2cc3c(=O)n(Cc4ccc5cocc5c4)c(=O)n(C)c3s2)c1	–	0.0505 µM
CCOC(=O)COc1ccc(CNC(=O)c2ccc3c(c2)c(=O)n(Cc2ccccc2)c(=O)n3C)cc1	0.72 µM	–
CCn1c(=O)n(Cc2ccc(C(=O)OC)cc2)c(=O)c2cc(C(=O)NCc3ccc(OC(F)(F)F)cc3)ccc21	0.34 µM	–
CCn1c(=O)n(Cc2ccc(C(=O)OC)cc2)c(=O)c2cc(C(=O)NCc3ccc(OC)cc3)ccc21	0.031 µM	–
COC(=O)c1ccc(Cn2c(=O)c3cc(C(=O)NCc4cc[n+]([O-])cc4)ccc3n(C)c2=O)cc1	0.1 µM	–
COC(=O)c1ccc(Cn2c(=O)c3cc(C(=O)NCc4ccncc4)ccc3n(C)c2=O)cc1	0.023 µM	–
COC(=O)c1ccc(Cn2c(=O)c3cc(C(=O)NCc4ccc(SC)cc4)ccc3n(C)c2=O)cc1	0.023 µM	–
COC(=O)c1ccc(Cn2c(=O)c3cc(C(=O)NCc4cccc(OC)c4)ccc3n(C)c2=O)cc1	0.003 µM	–
COC(=O)c1ccc(Cn2c(=O)[nH]c3ccc(C(=O)NCc4ccc(OC)cc4)cc3c2=O)cc1	0.009 µM	–
COC(=O)c1ccc(Cn2c(=O)c3cc(C(=O)NCc4ccc5c(c4)OCO5)ccc3n(C)c2=O)cc1	0.0028 µM	–
COC(=O)c1ccc(Cn2c(=O)c3cc(C(=O)NCc4ccc5nonc5c4)ccc3n(C)c2=O)cc1	0.035 µM	–
COC(=O)c1ccccc1-c1ccc(Cn2c(=O)c3cc(C(=O)NCc4ccc(OC)cc4)ccc3n(C)c2=O)cc1	0.084 µM	–
COC(=O)Cc1ccc(Cn2c(=O)c3cc(C(=O)NCc4ccncc4)ccc3n(C)c2=O)cc1	0.02 µM	–
COC(=O)Cn1c(=O)n(Cc2ccccc2)c(=O)c2cc(C(=O)NCc3ccc4c(c3)OCO4)ccc21	0.16 µM	–
Cn1c(=O)n(Cc2ccc(CC(=O)O)cc2)c(=O)c2cc(C(=O)NCc3ccncc3)ccc21	0.011 µM	–
Cn1c(=O)n(Cc2ccccc2)c(=O)c2cc(C(=O)NCc3ccc(OCC(=O)O)cc3)ccc21	2.9 µM	–
O=C(O)Cn1c(=O)n(Cc2ccccc2)c(=O)c2cc(C(=O)NCc3ccc4c(c3)OCO4)ccc21	0.105 µM	–

Continued, values first:

IC50 (MMP13 IC50 μM, Table IVb)	IC50 (MMP 13 IC50 μM, Table III)	SMILES
0.0009 µM	–	COc1ccc(CNC(=O)c2ccc3c(c2)c(=O)n(Cc2ccc(-c4nn[nH]n4)cc2)c(=O)n3C)cc1
0.0015 µM	–	COc1ccc(CNC(=O)c2ccc3c(c2)c(=O)n(Cc2ccc(-c4noc(=O)[nH]4)cc2)c(=O)n3C)cc1
0.68 µM	–	C#CCn1c(=O)c2cc(C(=O)NCc3ccc(OC)cc3)ccc2n(C)c1=O
0.43 µM	–	COc1ccc(CNC(=O)c2ccc3c(c2)c(=O)n(Cc2ccccn2)c(=O)n3C)cc1
0.046 µM	–	COc1ccc(CNC(=O)c2ccc3c(c2)c(=O)n(Cc2cccnc2)c(=O)n3C)cc1
0.0023 µM	–	COc1ccc(CNC(=O)c2ccc3c(c2)c(=O)n(Cc2ccc(-c4nnnn4C)cc2)c(=O)n3C)cc1
0.004 µM	–	COc1ccc(CNC(=O)c2ccc3c(c2)c(=O)n(Cc2ccc(-c4nnn(C)n4)cc2)c(=O)n3C)cc1
0.0029 µM	–	COc1ccc(CNC(=O)c2ccc3c(c2)c(=O)n(Cc2ccc(-c4nc(C)no4)cc2)c(=O)n3C)cc1
0.0049 µM	–	COc1ccc(CNC(=O)c2ccc3c(c2)c(=O)n(Cc2ccc(-c4noc(C)n4)cc2)c(=O)n3C)cc1
0.0064 µM	–	CNC(=O)c1ccc(Cn2c(=O)c3cc(C(=O)NCc4ccc(OC)cc4)ccc3n(C)c2=O)cc1
0.004 µM	–	COc1ccc(CNC(=O)c2ccc3c(c2)c(=O)n(Cc2ccc(C(=O)O)c(Cl)c2)c(=O)n3C)cc1
0.001 µM	–	COc1ccc(CNC(=O)c2ccc3c(c2)c(=O)n(Cc2ccc(C(=O)O)c(F)c2)c(=O)n3C)cc1
0.0016 µM	–	COc1ccc(CNC(=O)c2ccc3c(c2)c(=O)n(Cc2ccc(C(=O)O)c(O)c2)c(=O)n3C)cc1
0.0045 µM	–	COc1ccc(CNC(=O)c2ccc3c(c2)c(=O)n(Cc2ccc(C(=O)O)c(OC)c2)c(=O)n3C)cc1
0.0018 µM	–	COc1ccc(CNC(=O)c2ccc3c(c2)c(=O)n(Cc2ccc(C(=O)O)c(C)c2)c(=O)n3C)cc1
1.01 µM	–	C=CCn1c(=O)c2cc(C(=O)NCc3ccc(OC)cc3)ccc2n(C)c1=O
0.018 µM	–	COc1ccc(CNC(=O)c2ccc3c(c2)c(=O)n(Cc2ccc4nonc4c2)c(=O)n3C)cc1
1.95 µM	–	COc1ccc(CNC(=O)c2ccc3c(c2)c(=O)n(CC(N)=O)c(=O)n3C)cc1
0.15 µM	–	COc1ccc(CNC(=O)c2ccc3c(c2)c(=O)n(CCOc2ccc(F)cc2)c(=O)n3C)cc1

IC50 (MMP13 IC50 μM, Table IVb)	IC50 (MMP 13 IC50 μM, Table III)	SMILES
0.009 µM	–	COc1ccc(CNC(=O)c2ccc3c(c2)c(=O)n(Cc2ccc(NC(C)=O)cc2)c(=O)n3C)cc1
0.07 µM	–	COc1ccc(CNC(=O)c2ccc3c(c2)c(=O)n(Cc2ccc(CN)cc2)c(=O)n3C)cc1
0.0011 µM	–	COc1ccc(CNC(=O)c2cc3c(=O)n(Cc4ccc(C#N)cc4)c(=O)n(C)c3cn2)cc1
0.028 µM	–	COc1ccc(CNC(=O)c2ccc3c(c2)c(=O)n(Cc2ccc(N(C)C)cc2)c(=O)n3C)cc1
0.06 µM	–	COc1ccc(Cn2c(=O)c3cc(C(=O)NCc4ccncc4)ccc3n(C)c2=O)cc1
0.004 µM	–	COc1ccc(CNC(=O)c2ccc3c(c2)c(=O)n(Cc2ccc(NS(C)(=O)=O)cc2)c(=O)n3C)cc1
0.053 µM	–	COc1ccc(CNC(=O)c2ccc3c(c2)c(=O)n(Cc2ccc(N)nc2)c(=O)n3C)cc1
0.0009 µM	–	COc1cccc(CNC(=O)c2ccc3c(c2)c(=O)n(Cc2ccc(C(=O)O)cc2)c(=O)n3C)c1
0.11 µM	–	COc1ccc(CNC(=O)c2ccc3c(c2)c(=O)n(Cc2ccc(C(=O)OCCN(C)C)c(C)c2)c(=O)n3C)cc1
0.00074 µM	–	COc1ccc(CNC(=O)c2cc3c(=O)n(Cc4ccc(C(=O)O)cc4)c(=O)n(C)c3cn2)cc1
0.009 µM	–	CCOC(=O)c1ccc(Cn2c(=O)c3cc(C(=O)NCc4ccc(OC)cc4)ccc3n(C)c2=O)cc1F
0.14 µM	–	COC(=O)c1ccc(Cn2c(=O)c3cc(C(=O)NCc4ccc(OC)cc4)ccc3n(C)c2=O)cc1Cl
0.0043 µM	–	COC(=O)c1ccc(Cn2c(=O)c3cc(C(=O)NCc4ccc(OC)cc4)ccc3n(C)c2=O)cc1O
0.05 µM	–	COC(=O)c1ccc(Cn2c(=O)c3cc(C(=O)NCc4ccc(OC)cc4)ccc3n(C)c2=O)cc1OC
0.0077 µM	–	COC(=O)c1ccc(Cn2c(=O)c3cc(C(=O)NCc4ccc(OC)cc4)ccc3n(C)c2=O)cc1C
0.01 µM	–	COC(=O)c1ccc(Cn2c(=O)c3cc(C(=O)NCc4ccc(F)cc4)ccc3n(C)c2=O)cc1
8 µM	–	COc1ccc(CNC(=O)c2ccc3c(c2)c(=O)n(-c2ccc(CC(=O)O)cc2)c(=O)n3C)cc1
0.015 µM	–	COc1ccc(CNC(=O)c2ccc3c(c2)c(=O)n(Cc2ccc(NC(=O)OC(C)(C)C)nc2)c(=O)n3C)cc1
